Test results from patent US8828925B2, “Etoposide and doxorubicin conjugates for drug delivery” (Angiochem Inc., priority 2008, dated 2014).
Where two headings read alike, the source gives them in different places. Blank lines part the entries; values can stand above or below the compound they belong to.

Key:
U87 cells = assay: in vitro cell proliferation assay ([3H]-thymidine incorporation), U87; format: cell-based, human
Procedure: (§1) For the in vitro cell proliferation assay, between 2.5 and 5×10^4 of U87 or SK-HEP-1 cells were seeded in a 24 well tissue culture microplate in a final volume of 1 mL of medium with 10% serum and incubated for 24 hours at 37° C. and 5% CO2. The medium was then replaced with serum-free medium and incubated overnight. The next morning the agent was freshly dissolved in dimethyl sulfoxide (DMSO) and the medium was replaced with complete medium containing the agent at different concentrations in triplicate. The final concentration of DMSO was 0.1%. The control used was a microplate well with cells and without agent. The cells were incubated for 48 to 72 hrs at 37° C. and 5% CO2. After the incubation, the medium was changed and replaced with 1 mL of complete medium containing [^3H]-thymidine (1 pCi/assay). The plate was incubated at 37° C. and 5% CO2 for 4 hrs. The medium as removed, and the cells were washed with PBS at 37° C. The cells were fixed with a mix of ethanol:acetic acid (3:1), washed with water, and precipitated 3 times with 10% of ice-cold TCA (trichloroacetic acid). Finally 500 μL of PCA (perchloric acid) were added to the wells and the microplates were heated for 30 min at 65° C. and 30 min at 75° C. The contents of each well were then transferred to a scintillation vial with 10 mL of scintillation cocktail and the activity was measured in CPM (count per minute) on a liquid scintillation counter Tri-Carb from Packard.

[1] = plasma kinetics after bolus administration; format: in vivo, CD-1 mice; conditions: IV bolus, 20 mg/kg, mice
Procedure: FIG. 8 describes the plasma kinetics of Etop-An2(3:1) following administration as a bolus. Radiolabeled (^125I) Etop-An2 (20 mg/kg) was injected in bolus by intravenous (i.v.) or intraperitoneal (i.p.) routes in CD-1 mice weighing about 25-30 g. The injection solution was composed of 12.5% dimethylsulfoxide (DMSO), 12.5% anhydrous ethanol 25% polyethylene glycol 400 (PEG400) and 50% NaCl/Glycine buffer. At several time intervals (0.5, 1, 2, and 6 hours) the blood was collected by cardiac puncture and animals were sacrificed. After blood centrifugation, the plasma radioactivity was measured in a gamma counter (Wizard 1470 Automatic Gamma Counter). The radioactivity was interpreted as % of injected dose per gram of plasma. Results were plotted using GraphPad prism software and the area under the curve (AUC) for each injection mode was calculated. The bioavailability of intraperitoneal Etop-An2 conjugate was then estimated by dividing the AUC after i.p. injection by the AUC after i.v. injection.

[2] = tissue distribution after IV bolus; format: in vivo; conditions: thirty minutes after IV bolus, mice, FIG. 12
Procedure: The effect of conjugation of an agent to a vector on distribution of the agent or the pharmacokinetics of a polypeptide that is conjugated to an agent was evaluated by administering a labeled polypeptide or conjugate to an animal and measuring distribution of the polypeptide or conjugate to organs (e.g., using ^3H or ^125I labeled conjugates) to mice. Similar experiments can be performed with compounds that include any of polypeptides described herein (e.g., the polypeptides described in Table 1 such as AngioPep-3, AngioPep-4a, AngioPep-4b, AngioPep-5, AngioPep-6, and AngioPep-7, or analogs thereof). Here, the unconjugated anticancer agent and the conjugates were injected intravenously to mice as a bolus. Tissues were collected at different times (0.25, 0.5, 1, and 4 hrs) and homogenized. To quantify the amount of ^3H-labeled conjugate, tissue homogenates were digested with tissue solubilizer, and 10 mL of liquid scintillator was added to samples. The amount of the ^125I labeled conjugate, in the different tissues is measured after TCA precipitation. Radioactivity associated with the tissues is quantified. The area under the curve (AUC 0-4) is estimated using the Prism software and is plotted for the different tissues.
FIG. 11 compares the brain distribution of Etop-An2(3:1) versus unconjugated etoposide thirty minutes after IV bolus administration to mice.

SK-HEP-1 cells [3] = system: SK-HEP-1 cells
Procedure: as §1

mouse brain [4] = conditions: in vivo
Procedure: (§2) The uptake of [^125I]-polypeptides to the luminal side of mouse brain capillaries was measured using the in situ brain perfusion method adapted in our laboratory for the study of agent uptake in the mouse brain.
(§3) Polypeptides were iodinated with standard procedures using iodo-beads from Sigma. Briefly polypeptides were diluted in 0.1 M phosphate buffer, pH 6.5 (PB). Two iodo-beads were used for each protein. These beads were washed twice with 3 mL of PB on a Whatman filter and re-suspended in 60 of PB. ^125I (1 mCi) from Amersham-Pharmacia biotech was added to the bead suspension for 5 min at room temperature. Each iodination was initiated by the addition of the polypeptide (100 μg). After an incubation of 10 min at room temperature, the free iodine was removed by HPLC.
(§4) Briefly, the right common carotid of ketamine/xylazine (140/8 mg/kg i.p.) anesthetized mice was exposed and ligated at the level of the bifurcation of the common carotid, rostral to the occipital artery. The common carotid was then catheterized rostrally with polyethylene tubing filled with heparin (25 U/mL) and mounted on a 26-gauge needle. The syringe containing the perfusion fluid ([^125I]-polypeptides or [^14C]-inulin in Krebs/bicarbonate buffer at a pH7.4 gassed with 95% O2 and 5% CO2) was placed in an infusion pump (Harvard pump PHD 2000; Harvard Apparatus) and connected to the catheter. Prior to the perfusion, the contralateral blood flow contribution was eliminated by severing heart ventricles. The brain was perfused for the indicated times at a flow rate of 1.15 mL/min. After 14.5 min of perfusion, the brain was further perfused for 60 seconds with Krebs buffer to wash the excess of [^125I]-proteins. Mice were then decapitated to terminate perfusion and the right hemisphere was isolated on ice before being subjected to capillary depletion. Aliquots of homogenates, supernatants, pellets and perfusates were taken to measure their contents in [^125I]-conjugates by TCA precipitation and to evaluate the apparent volume of distribution.

P-gp = P-gp (Mus musculus, UniProt P21447)
Procedure: as §2
Briefly, the right common carotid of ketamine/xylazine (140/8 mg/kg i.p.) anesthetized mice was exposed and ligated at the level of the bifurcation of the common carotid, rostral to the occipital artery. The common carotid was then catheterized rostrally with polyethylene tubing filled with heparin (25 U/mL) and mounted on a 26-gauge needle. The syringe containing the perfusion fluid ([^125I]-polypeptides or [^14C]-inulin in Krebs/bicarbonate buffer at a pH7.4 gassed with 95% O2 and 5% CO2) was placed in an infusion pump (Harvard pump PHD 2000; Harvard Apparatus) and connected to the catheter. Prior to the perfusion, the contralateral blood flow contribution was eliminated by severing heart ventricles. The brain was perfused for the indicated times at a flow rate of 1.15 mL/min. After 14.5 min of perfusion, the brain was further perfused for 60 seconds with Krebs buffer to wash the excess of [^125I]-proteins. Mice were then decapitated to terminate perfusion and the right hemisphere was isolated on ice before being subjected to capillary depletion. […]

SK-HEP-1 cells [5] = assay: in vitro cell proliferation assay ([3H]-thymidine incorporation), SK-HEP-1
Procedure: as §1

[6] = system: Lung Carcinoma (NCI-H460); assay: in vitro cell proliferation assay, NCI-H460; format: cell-based; conditions: Table 5
mouse brain [7] = assay: in situ brain perfusion (brain uptake)
Procedure: as §2, §3, §4

[8] = literature data (Reddy et al. 2005); cited from earlier work
[9] = system: U87 cells in nude mice brain; assay: intracerebral human brain tumor model (U87), survival; format: in vivo; conditions: doxorubicin 6 mg/kg, (DoxSu)3-An2 40 mg/kg i.v. 1× per week
Procedure: The intracerebral human brain tumor model was established by stereotactic inoculation of 5×10^5 U87 cells in nude mice brain. Female athymic nude mice (Crl:Nu/Nu-nuBR; 20-25 g, 4-6 weeks old; Charles River Canada, St-Constant, QC) were used for tumor models and were maintained in a pathogen-free environment. One hour before surgery, mice received a subcutaneous injection of buprenorphine (0.1 mg kg^−1). For tumor cell inoculation, mice were anesthetized by i.p. injection of ketamine/xylazine (120/10 mg kg^−1) and placed in a stereotactic apparatus (Kopf; Tujunga, Calif.). A burr hole was drilled 1.5 mm anterior and 2.5 mm lateral to the bregma. The cell suspension in 5 μL of serum free cell culture medium was injected over a 5 minute period using a Hamilton syringe at a depth of 3.5 mm.
Drug treatment started 3 days post-inoculation (Table 8). […] Drug solutions were prepared in dextrose 5% water (D5W). Injection solutions were freshly prepared before each administration. Clinical signs of disease progression and body weights were monitored everyday. When mice reached terminal endpoints (20% of decrease in body weight), they were sacrificed by carbon dioxide asphyxiation.

[10] = Homo sapiens, U-87 MG, Table 5, incubation 48 to 72 hrs, read-out: IC50 (nM) Glioblastoma (U87)
[11] = Homo sapiens, SK-HEP1, read-out: IC50 (nM) Hepatocarcinoma (SK-Hep-1)

Sequence of P-gp (P21447 whole entry): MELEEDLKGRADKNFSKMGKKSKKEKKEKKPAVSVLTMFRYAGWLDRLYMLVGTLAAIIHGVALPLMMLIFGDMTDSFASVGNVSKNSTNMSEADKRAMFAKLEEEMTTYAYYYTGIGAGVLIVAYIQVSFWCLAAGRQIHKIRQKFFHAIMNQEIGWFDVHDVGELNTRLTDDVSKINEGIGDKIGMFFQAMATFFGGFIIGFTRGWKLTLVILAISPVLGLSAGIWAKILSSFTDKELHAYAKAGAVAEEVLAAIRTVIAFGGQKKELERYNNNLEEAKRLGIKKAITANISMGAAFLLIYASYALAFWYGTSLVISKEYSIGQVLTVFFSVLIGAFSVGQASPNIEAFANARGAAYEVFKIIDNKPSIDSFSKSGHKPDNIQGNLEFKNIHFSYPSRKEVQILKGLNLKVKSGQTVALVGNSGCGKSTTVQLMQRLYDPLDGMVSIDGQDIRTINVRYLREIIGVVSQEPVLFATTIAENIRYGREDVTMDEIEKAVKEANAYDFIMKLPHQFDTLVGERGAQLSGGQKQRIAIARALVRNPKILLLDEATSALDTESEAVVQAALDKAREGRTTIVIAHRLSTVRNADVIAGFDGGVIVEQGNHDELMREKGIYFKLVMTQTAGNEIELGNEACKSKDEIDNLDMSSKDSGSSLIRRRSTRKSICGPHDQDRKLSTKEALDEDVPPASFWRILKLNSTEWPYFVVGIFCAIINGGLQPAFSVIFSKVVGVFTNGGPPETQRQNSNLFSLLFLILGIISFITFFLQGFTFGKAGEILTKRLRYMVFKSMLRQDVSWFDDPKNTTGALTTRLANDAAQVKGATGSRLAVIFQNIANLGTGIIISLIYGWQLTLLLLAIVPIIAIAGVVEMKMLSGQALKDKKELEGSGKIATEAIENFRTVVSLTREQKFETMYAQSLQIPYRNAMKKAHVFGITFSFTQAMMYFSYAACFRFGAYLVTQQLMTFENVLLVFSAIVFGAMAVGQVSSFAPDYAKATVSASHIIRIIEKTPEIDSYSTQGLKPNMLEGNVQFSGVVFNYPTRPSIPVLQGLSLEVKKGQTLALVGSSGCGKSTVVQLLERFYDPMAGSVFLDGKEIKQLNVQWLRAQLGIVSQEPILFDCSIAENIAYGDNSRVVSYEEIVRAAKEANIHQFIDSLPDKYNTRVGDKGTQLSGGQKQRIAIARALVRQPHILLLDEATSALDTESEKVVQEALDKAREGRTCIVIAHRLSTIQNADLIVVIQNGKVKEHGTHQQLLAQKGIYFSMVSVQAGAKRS

Compound: COc1cc([C@@H]2c3cc4c(cc3[C@@H](O[C@@H]3O[C@@H]5CO[C@@H](C)O[C@H]5[C@H](O)[C@H]3OC(=O)CCCC(=O)NCCCC[C@H](NC(=O)CNC(=O)[C@H](CCCNC(=N)N)NC(=O)[C@H](CO)NC(=O)CNC(=O)CNC(=O)[C@H](Cc3ccc(O)cc3)NC(=O)[C@H](Cc3ccccc3)NC(=O)[C@H](Cc3ccccc3)NC(=O)[C@@H](NC(=O)CCCC(=O)O[C@H]3[C@H](O[C@@H]5c6cc7c(cc6[C@@H](c6cc(OC)c(O)c(OC)c6)[C@H]6C(=O)OC[C@@H]65)OCO7)O[C@@H]5CO[C@@H](C)O[C@H]5[C@@H]3O)[C@@H](C)O)C(=O)N[C@@H](CCCNC(=N)N)C(=O)N[C@@H](CC(N)=O)C(=O)N[C@@H](CC(N)=O)C(=O)N[C@@H](Cc3ccccc3)C(=O)N[C@@H](CCCCNC(=O)CCCC(=O)O[C@H]3[C@H](O[C@@H]5c6cc7c(cc6[C@@H](c6cc(OC)c(O)c(OC)c6)[C@H]6C(=O)OC[C@@H]65)OCO7)O[C@@H]5CO[C@@H](C)O[C@H]5[C@@H]3O)C(=O)N[C@H](C(=O)N[C@@H](CCC(=O)O)C(=O)N[C@@H](CCC(=O)O)C(=O)N[C@@H](Cc3ccc(O)cc3)C(=O)O)[C@@H](C)O)[C@H]3COC(=O)[C@H]23)OCO4)cc(OC)c1O [Etop-An2(3:1), ((2″-Glutaryl)-Etop)3-(Angiopep2)]
IC50 (U87 cells; U-87 Cells, 24 hours, read-out: IC50 (nM) 24 hours): 453 nM
IC50 (U87 cells; U-87 Cells, 48 hours, read-out: IC50 (nM) 48 hours): 151 nM
IC50 (U87 cells; U-87 Cells, 72 hours, read-out: IC50 (nM) 72 hours): 164 nM
AUC0-∞ (hr°μg/mL) [1]: 82 hr°μg/mL
Elim. Rate Const. [1]: 1.6 h⁻¹
T1/2α [1]: 25.8 min
concentration in the tissues studied versus unconjugated etoposide [2]: increased concentration in the tissues studied
IC50 (SK-HEP-1 cells [3]): 0.059 µM
Vd (slope) relative to the corresponding unconjugated drug (mouse brain [4]): higher
P-gp substrate status (P-gp): not a P-gp substrate
IC50 (SK-HEP-1 cells [5]; read-out: IC50 (nM) 24 hours, SK-HEP-1, 24 hours): 160 nM
IC50 (SK-HEP-1 cells [5]; read-out: IC50 (nM) 72 hours, SK-HEP-1, 72 hours): 52 nM

IC50 (U87 cells; [10]): 145 nM
IC50 ([6]; Homo sapiens, NCI-H460): 90 nM
Brain Kin (mouse brain [7]): 9e-05 mL/s/g
IC50 (SK-HEP-1 cells [5]; [11]): 62 nM
Compound: COc1cc(C2c3cc4c(cc3[C@@H](O[C@@H]3O[C@@H]5CO[C@@H](C)O[C@H]5[C@H](O)[C@H]3O)[C@H]3COC(=O)[C@H]23)OCO4)cc(OC)c1OC(=O)CN(C)C (stereo partly drawn) [EtopDMG, Etoposide 4′-Dimethylglycine]

Compound: (Etoposide-4′-Dimethylglycine-2″-Glutaric)3-Angiopep-2 Conjugate [EtopDMG-An2(3:1)]
IC50 (U87 cells; Table 5, incubation 48 to 72 hrs, read-out: IC50 (nM) Glioblastoma (U87)): 330 nM
IC50 [6]: 148 nM
IC50 (SK-HEP-1 cells [5]; read-out: IC50 (nM) Hepatocarcinoma (SK-Hep-1), Table 5, incubation 48 to 72 hrs): 48 nM

IC50 (U87 cells; Homo sapiens, U-87 MG, U-87 Cells, 24 hours, read-out: IC50 (nM) 24 hours): 160 nM
IC50 (U87 cells; Homo sapiens, U-87 MG, U-87 Cells, 48 hours, read-out: IC50 (nM) 48 hours): 221 nM
IC50 (U87 cells; Homo sapiens, U-87 MG, U-87 Cells, 72 hours, read-out: IC50 (nM) 72 hours): 145 nM
IC50 (SK-HEP-1 cells [3]): 0.056 µM
IC50 (SK-HEP-1 cells [5]; Homo sapiens, SK-HEP1, 24 h, read-out: IC50 (nM) 24 hours): 116 nM
IC50 (SK-HEP-1 cells [5]; Homo sapiens, SK-HEP1, 72 h, read-out: IC50 (nM) 72 hours): 50 nM
Compound: COc1cc([C@@H]2c3cc4c(cc3[C@@H](O[C@@H]3O[C@@H]5CO[C@@H](C)O[C@H]5[C@H](O)[C@H]3O)[C@H]3COC(=O)[C@H]23)OCO4)cc(OC)c1O [Etoposide]
T1/2α [8]: 7.8 min

Compound: COc1cccc2c1C(=O)c1c(O)c3c(c(O)c1C2=O)C[C@@](O)(C(=O)CO)C[C@@H]3O[C@H]1C[C@H](N)[C@H](O)[C@H](C)O1 [Doxorubicin, doxorubicin]
IC50 (U87 cells; [10]): 18 nM
IC50 ([6]; Homo sapiens, NCI-H460): 11 nM
Survival (days) Mean Trial 1 ([9]; Trial 1): 20.6 days
Survival (days) Median Trial 1 ([9]; Trial 1, treatment from 3 days post-inoculation): 21 days
Survival (days) Median Trial 2 ([9]; Trial 2): 23 days
Brain Kin (mouse brain [4]; pH 7.4): 0.00028 mL/s/g
IC50 (SK-HEP-1 cells [5]; [11]): 10 nM
